# Entries after “also recorded” stand apart in the source; their conditions may differ.
# Tests used:
# [1] = system: skin keratinocyte (HaCaT); experiment: proliferation of cultured cells, MTT method, HaCaT; format: cell-based, human; details: saccharide 50 mM, 4 to 5 days
# Description: (§1) Various kinds of rare saccharides were added at a concentration of 50 mM to culture media under the following conditions, and an influence of each rare saccharide upon the progress of proliferation of cancer cell strains was examined.
# (§2) (1) Target cells to which the rare saccharides were added: Hepatic cancer cells (HepG2), uterine cancer cells (He1a), ovary cancer cells (OVCAR3), and skin keratinocyte (HaCaT) were selected as target cells to which the rare saccharides were added.
# (§3) (2) Rare saccharides added: In addition to D-allose, glucose and D-altros as rare saccharides belonging to ketose were added, as other comparative saccharides, to the addition target cells. Also, D-fructose was employed as a control.
# (§4) (3) Experiment method: A number 3,000-5,000 of addition target cells per type were inoculated into a multi-well plastic dish (hereinafter referred to as a “well”) having 96 wells, and were cultured for 4 to 5 days in a culture medium supplemented with 5 to 10% of Fetal Bovine Serum (FBS) depending on the cell types. […] To examine the influence upon the cell proliferation, the cell number was measured in units of 24 hours by using the MTT method described below. […]
# (§5) (2) Test method: The cells were treated with TEP to prepare a cell suspension liquid. […] The absorbance of the liquid was measured at a wavelength of 570 to 600 nm by using a spectrophotometer. […]
# THP-1 = experiment: blood-system cancer cell strain proliferation, Coulter Counter, THP1; format: cell-based; details: 0.05-50 mM, 7 days, D-glucose control
# Description: (2) Method: Total 6 kinds of cell strains, i.e., Myeloid (HL-60, THP-1, KG-1), T-cell (MT-2), and B-Cell (Daudi, KS-1), and 3 kinds of rare saccharides (i.e., D-psicose, D-altrose, and D-allose), were employed. The culture medium and the cells were prepared to be 1 mL in total and 1×10^5 in number, respectively. Then, the cell number at each of fourth day and seventh day was counted by using a Coulter Counter. Each rare saccharide was added at concentrations of 0.05, 0.5, 5 and 50 mM, while D-glucose was used as a control.
# Culture Medium: FBS 10% added RPMI1460
# Cultivation Conditions: 37° C., 5% CO2
# Cultivation Vessel: FALCON, MULTIWELL, 12 wells
# Number of Cultivation Days: 7 days
# Saccharides Concentration: 0.05, 0.5, 5, 50 mM
# livers of rats = experiment: rat liver ischemia-reperfusion, survival; format: in vivo; details: liver ischemia 90 minutes then reperfusion; D-allose 0.2 g/kg perfused before the ischemia; usually only 30%
# Description: When a surgical operation for intestinal organs, such as the liver, is performed, a blood flow is always temporarily stopped. This brings the intestinal organs into the ischemia state. When blood is started to flow again after the surgery, active oxygen is produced in large amount from leukocyte at that time, which is considered as one of major causes bringing about the organic injury. The inventors conducted an experiment through the steps of bringing the livers of rats into the ischemia state for a relatively long time, i.e., 90 minutes, and then reperfusing blood to examine the survival rate of the rats after 3 months depending on application or non-application of the rare saccharide. While the survival rate is usually only 30%, it increased to about 70% by perfusing D-allose at 0.2 g/kg before the ischemia. […] This effect is considered to be one factor making D-allose effective in organ protection.
# [2] = system: glutamate release from hippocampus; experiment: temporary brain ischemia, glutamate outside hippocampus neurons by micro-dialysis; format: in vivo, gerbil
# Description: (2) Method: The bilateral common carotid artery of a gerbil was shut off for 5 minutes. After 1 week, the gerbil was sacrificed and a sample was prepared in accordance with the ordinary method, followed by hematoxyline eosin dyeing. The survival rate was measured by counting the number of hippocampus neurons while looking at them under a microscope. Experiments were performed on a normal control group, a group subjected to only ischemia, and a group administrated with 200 mg/kg of D-allose or D-psicose before ischemia. It is known that glutamates released in large amount from the neurons with ischemia are toxic to the neurons. Such a point was examined by fixing the gerbil to a brain position fixing device, perfusing a solution, in which oxidase glutamate is dissolved, to the hippocampus through a probe for micro-dialysis, and measuring the glutamate concentration outside the hippocampus neurons. Also, the inventors have clarified the relationship between the metabolism of glucose and the action mechanism of D-allose with ischemia by pre-administrating D-allose and 2-deoxiglucose.
# [3] = system: uterine cancer cells (He1a); experiment: proliferation of cultured cells, MTT method, He1a; format: cell-based, human; details: saccharide 50 mM, 4 to 5 days
# Description: as §1, §2, §3, §4, §5
# rat intestinal tract = experiment: glucose absorption in reversed intestinal tract; details: D-psicose at concentration comparable to that of glucose
# Description: To clarify an influence of D-psicose upon the absorption of glucose, the influence of D-psicose upon the absorption of glucose was analyzed by using a rat intestinal tract. The absorption of glucose was analyzed by measuring concentrations outside and inside a mucous membrane of an intestinal tract by a quantitative manner based on the glucose oxidase method. How the absorption of glucose changed under coexistence of D-psicose and glucose was measured. Further, how a sugar absorption system changed was analyzed by using an intestinal tract of a rat administrated with D-psicose for a long time. […] After the lapse of a certain time, the solution on the serous membrane side was sampled and the glucose concentration was measured. By adding D-psicose at various concentrations, an influence of D-psicose upon transport of glucose from the mucous membrane side to the serous membrane side was studied.
SMILES,proliferation of HaCaT cells (cell number over time) [1],THP1 proliferation inhibitory effect (THP-1),survival rate of the rats after 3 months (livers of rats),inhibition rate of second peak of glutamate release (hyperperfusion after ischemia) ([2]; administration of D-allose),inhibition rate of first peak of glutamate release (with ischemia) ([2]; pre-administration of D-allose),proliferation of He1a cells (cell number over time) [3],rise of glucose concentration on the serous membrane side (rat intestinal tract)
O=C[C@H](O)[C@H](O)[C@H](O)[C@H](O)CO [D-allose],strongly inhibited proliferation; also recorded: has a proliferation inhibitory effect,showed a cell proliferation inhibitory effect at 59 mM,about 70%,about 90%,about 25%,strongly inhibited proliferation; also recorded: has a proliferation inhibitory effect,–
O=C(CO)[C@H](O)[C@H](O)[C@H](O)CO [D-psicose],–,–,–,–,–,–,significantly inhibited
